Data reported in US10858359B2, “Heterocyclic ring derivatives useful as SHP2 inhibitors” (priority 2016, dated 2020).
Structures can show the parent of a compound that is named as a salt.

Assays:
SHP2 [1] = target: T1, SHP2 (Homo sapiens (Human), UniProt Q06124); assay: Phosphatase assay (single dose inhibition), DiFMUP substrate; type: biochemical; conditions: compound at 0.1 μM (100 nM); SHP2 0.5 nM activated with dPEG8 peptide; DiFMUP 12 μM; relative to DMSO control
Protocol: DMSO [0.5% (v/v)] or compounds (100 nM) were added to the mixture and incubated for 30 min at room temperature. […] The experiment is carried out in triplicate. The value for the control sample (DMSO) was set to 100%, and the values for the compound-treated samples were expressed as activity relative to the control sample.

KYSE-520 cells = assay: Cell proliferation assay (MTS/PMS); type: cell-based; conditions: Homo sapiens, 192 h, 1500 cells/well, RPMI-1640 3% FBS, read at day 8
Protocol: For drug treatment, compounds of the invention at various concentrations were added 24 hours after cell plating. At day 8, 50 μL MTS/PMS reagents (Promega/Sigma) were added, and the absorbance value was determined according to the supplier's instruction (Promega).

SHP2 [2] = target: T1, SHP2; assay: Phosphatase assay (IC50), DiFMUP substrate; type: biochemical; conditions: SHP2 0.5 nM activated with dPEG8 peptide; DiFMUP 12 μM; compounds 0.3 nM to 1 μM
Protocol: DMSO [0.5% (v/v)] or compounds (concentrations ranging from 0.3 nM to 1 μM) were added to the mixture and incubated for 30 min at room temperature.

inhibition at 0.1 µM (SHP2 [1])	IC50 (SHP2 [2])	SMILES	IC50 (KYSE-520 cells)
37%	–	CN(C)C(=O)C(=O)c1ccc(C(=O)Nc2nccc(Sc3ncc(N4CCC(C)(N)CC4)nc3N)c2Cl)cc1 [Example 34, N-(4-((3-amino-5-(4-amino-4-methylpiperidin-1-yl)pyrazin-2-yl)thio)-3-chloropyridin-2-yl)-4-(2-(dimethylamino)-2-oxoacetyl)benzamide]	–
58%	–	Nc1nc(N2CCC3(CC2)COC[C@H]3N)cnc1Sc1cccc2[nH]ccc12 [Example 42, (S)-8-(5-((1H-indol-4-yl)thio)-6-aminopyrazin-2-yl)-2-oxa-8-azaspiro[4.5]decan-4-amine]	–
30%	–	CN(C)C(=O)C(=O)c1ccc(C(=O)Nc2nccc(Sc3ncc(N4CCC(C)(CN)CC4)nc3N)c2Cl)cc1 [Example 35, N-(4-((3-amino-5-(4-(aminomethyl)-4-methylpiperidin-1-yl)pyrazin-2-yl)thio)-3-chloropyridin-2-yl)-4-(2-(dimethylamino)-2-oxoacetyl)benzamide]	–
57%	–	CN(C)C(=O)C(=O)Nc1cccc(Sc2ncc(N3CCC(C)(CN)CC3)nc2N)c1Cl [Example 20, N^1-(3-((3-amino-5-(4-(aminomethyl)-4-methylpiperidin-1-yl)pyrazin-2-yl)thio)-2-chlorophenyl)-N^2,N^2-dimethyloxalamide]	–
47%	–	CN(C)C(=O)C(=O)Nc1cccc(Sc2ncc(N3CCC(C)(N)CC3)nc2N)c1Cl [Example 29, N^1-(3-((3-amino-5-(4-amino-4-methylpiperidin-1-yl)pyrazin-2-yl)thio)-2-chlorophenyl)-N^2,N^2-dimethyloxalamide]	–
53%	–	Cc1ccc(C(=O)C(=O)Nc2cccc(Sc3ncc(N4CCC(C)(N)CC4)nc3N)c2Cl)cc1 [Example 31, N-(3-((3-amino-5-(4-amino-4-methylpiperidin-1-yl)pyrazin-2-yl)thio)-2-chlorophenyl)-2-oxo-2-(p-tolyl)acetamide]	–
43%	–	CC(=O)n1ccc2c(Sc3ncc(N4CCC5(CC4)COC[C@H]5N)nc3N)cccc21 [Example 43, (S)-1-(4-((3-amino-5-(4-amino-2-oxa-8-azaspiro[4.5]decan-8-yl)pyrazin-2-yl)thio)-1H-indol-1-yl)ethanone]	–
49%	–	C=CC(=O)Nc1cccc(Sc2ncc(N3CCC(C)(NC(=O)OC(C)(C)C)CC3)nc2N)c1Cl [Example 32, tert-butyl (1-(5-((3-acrylamido-2-chlorophenyl)thio)-6-aminopyrazin-2-yl)-4-methylpiperidin-4-yl)carbamate]	–
60%	–	CN(C)C(=O)C(=O)c1ccc(C(=O)Nc2cccc(Sc3ncc(N4CCC(C)(N)CC4)nc3N)c2Cl)cc1 [Example 3, N-(3-((3-amino-5-(4-amino-4-methylpiperidin-1-yl)pyrazin-2-yl)thio)-2-chlorophenyl)-4-(2-(dimethylamino)-2-oxoacetyl)benzamide]	–

Second part, the compound before the results:

SMILES	inhibition at 0.1 µM (SHP2 [1])	IC50 (SHP2 [2])	IC50 (KYSE-520 cells)
CN1C(=O)C(F)(C(F)(F)F)c2c(Sc3ncc(N4CCC5(CC4)COC[C@H]5N)nc3N)cccc21 (stereo partly drawn) [Example 58, 4-((3-amino-5-((S)-4-amino-2-oxa-8-azaspiro[4.5]decan-8-yl)pyrazin-2-yl)thio)-3-fluoro-1-methyl-3-(trifluoromethyl)indolin-2-one]	61%	–	–
Nc1nc(N2CCC3(CC2)COC[C@H]3N)cnc1Sc1ccnc2[nH]ccc12 [Example 38, (S)-8-(5-((1H-pyrrolo[2,3-b]pyridin-4-yl)thio)-6-aminopyrazin-2-yl)-2-oxa-8-azaspiro[4.5]decan-4-amine]	30%	–	–
CC(=O)N1CCc2c(Sc3ncc(N4CCC5(CC4)COC[C@H]5N)nc3N)cccc21 [Example 72, (S)-1-(4-((3-amino-5-(4-amino-2-oxa-8-azaspiro[4.5]decan-8-yl)pyrazin-2-yl)thio)indolin-1-yl)ethanone]	31%	–	–
CN(C)C(=O)C(=O)Nc1cccc(Sc2ncc(N3CCC4(CC3)COC[C@H]4N)nc2N)c1Cl [Example 1, (S)-N1-(3-((3-amino-5-(4-amino-2-oxa-8-azaspiro[4.5]decan-8-yl)pyrazin-2-yl)thio)-2-chlorophenyl)-N2,N2-dimethyloxalamide hydrochloride]	–	–	15.9 µM
CN1C(=O)C(F)(F)c2c(Sc3ncc(N4CCC5(CC4)COC[C@H]5N[S@+]([O-])C(C)(C)C)nc3N)cccc21 [Example 11, (R)-N-((S)-8-(6-amino-5-((3,3-difluoro-1-methyl-2-oxoindolin-4-yl)thio)pyrazin-2-yl)-2-oxa-8-azaspiro[4.5]decan-4-yl)-2-methylpropane-2-sulfinamide]	–	–	12 µM
Nc1nc(N2CCC3(CC2)COC[C@H]3N)cnc1Sc1cccc2c1C(F)(F)C(=O)N2 [Example 8, (S)-4-((3-amino-5-(4-amino-2-oxa-8-azaspiro[4.5]decan-8-yl)pyrazin-2-yl)thio)-3,3-difluoroindolin-2-one]	76%	0.0214 µM	26.4 µM
Nc1nc(N2CCC3(CC2)COC[C@H]3N)cnc1Sc1ccnc2c1C(F)(F)C(=O)N2 [Example 10, (S)-4-((3-amino-5-(4-amino-2-oxa-8-azaspiro[4.5]decan-8-yl)pyrazin-2-yl)thio)-3,3-difluoro-1H-pyrrolo[2,3-b]pyridin-2(3H)-one]	81%	0.03 µM	–
Nc1nc(N2CCC3(CC2)COC[C@H]3N)cnc1Sc1cccc2[nH]cc(F)c12 [Example 40, (S)-8-(6-amino-5-((3-fluoro-1H-indol-4-yl)thio)pyrazin-2-yl)-2-oxa-8-azaspiro[4.5]decan-4-amine]	71%	0.0406 µM	–
Nc1nc(N2CCC3(CC2)C(=O)N2CCCC2C3N)cnc1Sc1ccnc(N)c1Cl (centres unmarked) [Example 75, 1′-amino-1-(6-amino-5-((2-amino-3-chloropyridin-4-yl)thio)pyrazin-2-yl)tetrahydrospiro[piperidine-4,2′-pyrrolizin]-3′(1′H)-one]	35%	–	–
CC(=O)N1CC(F)(F)c2c(Sc3ncc(N4CCC(C)(CNC(=O)OC(C)(C)C)CC4)nc3N)cccc21 [Example 13, tert-butyl ((1-(5-((1-acetyl-3,3-difluoroindolin-4-yl)thio)-6-aminopyrazin-2-yl)-4-methylpiperidin-4-yl)methyl)carbamate]	–	–	20.6 µM
Nc1nc(N2CCC3(CC2)CC2CC2C3N)cnc1Sc1ccnc(N)c1Cl (centres unmarked) [Example 74, 1′-(6-amino-5-((2-amino-3-chloropyridin-4-yl)thio)pyrazin-2-yl)spiro[bicyclo[3.1.0]hexane-3,4′-piperidin]-2-amine]	75%	0.0083 µM	3.38 µM
